# Measurements taken from ChEMBL document CHEMBL5143587, “Antitumor Effect of Manool in a Murine Melanoma Model” (J Nat Prod, 2022).
# Activity calls are given as the source filed them. The calls are words filed in the database; no cut-off is given here.
# Columns and labels:
# [1] = Genotoxicity in C57BL/6 mouse xenografted with mouse B16-F10 cells assessed as micronucleated polychromatic erythrocytes frequency in bone marrow cells at 40 mg/kg, ip for consecutive 5 days (reference value: 8.00); assay type: toxicity, organism-based; conditions: in vivo, 120 h, time 5 day
# [2] = Toxicity in C57BL/6 mouse xenografted with mouse B16-F10 cells assessed as change in body weight at 20 to 40 mg/kg, po administered once daily for consecutive 5 days; assay type: organism-based; conditions: in vivo, 120 h, dose 20-40 mg/kg, time 5 day
# [3] = Genotoxicity in C57BL/6 mouse xenografted with mouse B16-F10 cells assessed as micronucleated polychromatic erythrocytes frequency in bone marrow cells at 40 mg/kg, sc for consecutive 5 days (reference value: 10.00 +/-2.00); assay type: toxicity, organism-based; conditions: in vivo, 120 h, time 5 day
# [4] = Toxicity in C57BL/6 mouse xenografted with mouse B16-F10 cells assessed as change in heart weight at 20 to 40 mg/kg, sc administered once daily for consecutive 5 days relative to control; assay type: organism-based; conditions: in vivo, 120 h, dose 20-40 mg/kg, time 5 day
# [5] = system: B16-F10; experiment: Antitumor activity against mouse B16-F10 cells bearing C57BL/6 mouse assessed as reduction in tumor weight at 20 mg/kg, sc administered once daily for consecutive 5 days relative to control (reference value: 50.7%); assay type: functional; parameters: scale not given: the % may be the effect or the level left; conditions: time 5 day
# [6] = Toxicity in C57BL/6 mouse xenografted with mouse B16-F10 cells assessed as change in lung weight at 20 to 40 mg/kg, ip administered once daily for consecutive 5 days relative to control; assay type: organism-based; conditions: in vivo, 120 h, dose 20-40 mg/kg, time 5 day
# [7] = Toxicity in C57BL/6 mouse xenografted with mouse B16-F10 cells assessed as change in heart weight at 20 to 40 mg/kg, ip administered once daily for consecutive 5 days relative to control; assay type: organism-based; conditions: in vivo, 120 h, dose 20-40 mg/kg, time 5 day
# [8] = Genotoxicity in C57BL/6 mouse xenografted with mouse B16-F10 cells assessed as ratio of polychromatic erythrocytes to total erythrocytes in bone marrow cells at 40 mg/kg, po for consecutive 5 days (reference value: 0.90 +/-0.04); assay type: toxicity, organism-based; conditions: in vivo, 120 h, time 5 day
# [9] = system: B16-F10; experiment: Antitumor activity against mouse B16-F10 cells bearing C57BL/6 mouse assessed as reduction in tumor weight at 20 mg/kg, po administered once daily for consecutive 5 days in presence of cisplatin relative to control; assay type: functional; parameters: scale not given: the % may be the effect or the level left; conditions: time 5 day
# [10] = Genotoxicity in C57BL/6 mouse xenografted with mouse B16-F10 cells assessed as micronucleated polychromatic erythrocytes frequency in bone marrow cells at 40 mg/kg, po for consecutive 5 days (reference value: 6.00 +/-1.00); assay type: toxicity, organism-based; conditions: in vivo, 120 h, time 5 day
# [11] = Toxicity in C57BL/6 mouse xenografted with mouse B16-F10 cells assessed as reduction in spleen weight at 20 mg/kg, sc administered once daily for consecutive 5 days; assay type: organism-based; conditions: in vivo, 120 h, time 5 day
# [12] = Toxicity in C57BL/6 mouse xenografted with mouse B16-F10 cells assessed as splenomegaly at 20 mg/kg, ip administered once daily for consecutive 5 days; assay type: organism-based; conditions: in vivo, 120 h, time 5 day
# [13] = Toxicity in C57BL/6 mouse xenografted with mouse B16-F10 cells assessed as change in body weight at 20 to 40 mg/kg, ip administered once daily for consecutive 5 days; assay type: organism-based; conditions: in vivo, 120 h, dose 20-40 mg/kg, time 5 day
# [14] = Toxicity in C57BL/6 mouse xenografted with mouse B16-F10 cells assessed as body weight loss at 20 mg/kg, po administered once daily for consecutive 5 days in presence of cisplatin relative to control; assay type: organism-based; conditions: in vivo, 120 h, time 5 day
# [15] = Genotoxicity in C57BL/6 mouse xenografted with mouse B16-F10 cells assessed as micronucleated polychromatic erythrocytes frequency in bone marrow cells at 20 mg/kg, po for consecutive 5 days (reference value: 6.00 +/-1.00); assay type: toxicity, organism-based; conditions: in vivo, 120 h, time 5 day
# [16] = system: B16-F10; experiment: Antitumor activity against mouse B16-F10 cells bearing C57BL/6 mouse assessed as reduction in mitotic figures at 40 mg/kg, ip administered once daily for consecutive 5 days by H and E staining microscopic analysis; assay type: functional, organism-based; conditions: time 5.0 day
# [17] = Toxicity in C57BL/6 mouse xenografted with mouse B16-F10 cells assessed as splenomegaly at 40 mg/kg, ip administered once daily for consecutive 5 days; assay type: organism-based; conditions: in vivo, 120 h, time 5 day
# [18] = Toxicity in C57BL/6 mouse xenografted with mouse B16-F10 cells assessed as change in lung weight at 20 to 40 mg/kg, po administered once daily for consecutive 5 days relative to control; assay type: organism-based; conditions: in vivo, 120 h, dose 20-40 mg/kg, time 5 day
# [19] = Genotoxicity in C57BL/6 mouse xenografted with mouse B16-F10 cells assessed as ratio of polychromatic erythrocytes to total erythrocytes in bone marrow cells at 40 mg/kg, ip for consecutive 5 days (reference value: 0.91+/-0.01); assay type: toxicity, organism-based; conditions: in vivo, 120 h, time 5 day
# [20] = system: B16-F10; experiment: Antitumor activity against mouse B16-F10 cells bearing C57BL/6 mouse assessed as reduction in tumor weight at 20 mg/kg, po administered once daily for consecutive 5 days relative to control; assay type: functional; parameters: scale not given: the % may be the effect or the level left; conditions: time 5 day
# [21] = Toxicity in C57BL/6 mouse xenografted with mouse B16-F10 cells assessed as splenomegaly at 40 mg/kg, po administered once daily for consecutive 5 days; assay type: organism-based; conditions: in vivo, 120 h, time 5 day
# [22] = Toxicity in C57BL/6 mouse xenografted with mouse B16-F10 cells assessed as change in kidney weight at 20 to 40 mg/kg, ip administered once daily for consecutive 5 days relative to control; assay type: organism-based; conditions: in vivo, 120 h, dose 20-40 mg/kg, time 5 day
# [23] = Genotoxicity in C57BL/6 mouse xenografted with mouse B16-F10 cells assessed as ratio of polychromatic erythrocytes to total erythrocytes in bone marrow cells at 40 mg/kg, sc for consecutive 5 days (reference value: 0.60 +/-0.01); assay type: toxicity, organism-based; conditions: in vivo, 120 h, time 5 day
# [24] = system: B16-F10; experiment: Antitumor activity against mouse B16-F10 cells bearing C57BL/6 mouse assessed as reduction in tumor weight at 40 mg/kg, ip administered once daily for consecutive 5 days relative to control (reference value: 71.1%); assay type: functional; parameters: scale not given: the % may be the effect or the level left; conditions: time 5 day
# [25] = Toxicity in C57BL/6 mouse xenografted with mouse B16-F10 cells assessed as change in kidney weight at 20 to 40 mg/kg, po administered once daily for consecutive 5 days relative to control; assay type: organism-based; conditions: in vivo, 120 h, dose 20-40 mg/kg, time 5 day
# [26] = Toxicity in C57BL/6 mouse xenografted with mouse B16-F10 cells assessed as splenomegaly at 40 mg/kg, sc administered once daily for consecutive 5 days; assay type: organism-based; conditions: in vivo, 120 h, time 5 day
# [27] = Genotoxicity in C57BL/6 mouse xenografted with mouse B16-F10 cells assessed as micronucleated polychromatic erythrocytes frequency in bone marrow cells at 20 mg/kg, ip for consecutive 5 days (reference value: 8.00); assay type: toxicity, organism-based; conditions: in vivo, 120 h, time 5 day
# [28] = Genotoxicity in C57BL/6 mouse xenografted with mouse B16-F10 cells assessed as ratio of polychromatic erythrocytes to total erythrocytes in bone marrow cells at 20 mg/kg, po for consecutive 5 days (reference value: 0.90 +/-0.04); assay type: toxicity, organism-based; conditions: in vivo, 120 h, time 5 day
# [29] = Toxicity in C57BL/6 mouse xenografted with mouse B16-F10 cells assessed as change in heart weight at 20 to 40 mg/kg, po administered once daily for consecutive 5 days relative to control; assay type: organism-based; conditions: in vivo, 120 h, dose 20-40 mg/kg, time 5 day
# [30] = system: B16-F10; experiment: Antitumor activity against mouse B16-F10 cells bearing C57BL/6 mouse assessed as reduction in tumor weight at 40 mg/kg, po administered once daily for consecutive 5 days relative to control; assay type: functional; parameters: scale not given: the % may be the effect or the level left; conditions: time 5 day
# [31] = system: B16-F10; experiment: Antitumor activity against mouse B16-F10 cells bearing C57BL/6 mouse assessed as reduction in tumor weight at 20 mg/kg, ip administered once daily for consecutive 5 days relative to control (reference value: 71.1%); assay type: functional; parameters: scale not given: the % may be the effect or the level left; conditions: time 5 day
# [32] = Genotoxicity in C57BL/6 mouse xenografted with mouse B16-F10 cells assessed as micronucleated polychromatic erythrocytes frequency in bone marrow cells at 20 mg/kg, sc for consecutive 5 days (reference value: 10.00 +/-2.00); assay type: toxicity, organism-based; conditions: in vivo, 120 h, time 5 day
# [33] = Genotoxicity in C57BL/6 mouse xenografted with mouse B16-F10 cells assessed as ratio of polychromatic erythrocytes to total erythrocytes in bone marrow cells at 20 mg/kg, sc for consecutive 5 days (reference value: 0.60 +/-0.01); assay type: toxicity, organism-based; conditions: in vivo, 120 h, time 5 day
# [34] = Toxicity in C57BL/6 mouse xenografted with mouse B16-F10 cells assessed as change in lung weight at 20 to 40 mg/kg, sc administered once daily for consecutive 5 days relative to control; assay type: organism-based; conditions: in vivo, 120 h, dose 20-40 mg/kg, time 5 day
# [35] = Genotoxicity in C57BL/6 mouse xenografted with mouse B16-F10 cells assessed as ratio of polychromatic erythrocytes to total erythrocytes in bone marrow cells at 20 mg/kg, ip for consecutive 5 days (reference value: 0.91+/-0.01); assay type: toxicity, organism-based; conditions: in vivo, 120 h, time 5 day
# [36] = Toxicity in C57BL/6 mouse xenografted with mouse B16-F10 cells assessed as change in kidney weight at 20 to 40 mg/kg, sc administered once daily for consecutive 5 days relative to control; assay type: organism-based; conditions: in vivo, 120 h, dose 20-40 mg/kg, time 5 day
# [37] = Toxicity in C57BL/6 mouse xenografted with mouse B16-F10 cells assessed as reduction in spleen weight at 20 mg/kg, po administered once daily for consecutive 5 days; assay type: organism-based; conditions: in vivo, 120 h, time 5 day
# [38] = Toxicity in C57BL/6 mouse xenografted with mouse B16-F10 cells assessed as reduction in spleen weight at 20 mg/kg, ip administered once daily for consecutive 5 days; assay type: organism-based; conditions: in vivo, 120 h, time 5 day
# [39] = system: B16-F10; experiment: Antitumor activity against mouse B16-F10 cells bearing C57BL/6 mouse assessed as reduction in number of mitotic figures at 20 mg/kg, po administered once daily for consecutive 5 days in presence of cisplatin by H and E staining microscopic analysis; assay type: functional, organism-based; conditions: time 5.0 day
# [40] = Toxicity in C57BL/6 mouse xenografted with mouse B16-F10 cells assessed as change in body weight at 20 to 40 mg/kg, sc administered once daily for consecutive 5 days; assay type: organism-based; conditions: in vivo, 120 h, dose 20-40 mg/kg, time 5 day
smiles,measurement,setting,value
C=C[C@](C)(O)CC[C@H]1C(=C)CC[C@H]2C(C)(C)CCC[C@]12C,Activity,[1],4.33
same,Activity,[2],Non-Toxic
same,Activity,[3],7.33
same,Activity,[4],Non-Toxic
same,Activity,[5],38.8%
same,Activity,[6],Non-Toxic
same,Activity,[7],Non-Toxic
same,Ratio,[8],0.9
same,Activity,[9],86.7%
same,Activity,[10],6
same,Activity,[11],Non-Toxic
same,Activity,[12],Toxic
same,Activity,[13],Non-Toxic
same,Activity,[14],Toxic
same,Activity,[15],8
same,Activity,[16],Active
same,Activity,[17],Toxic
same,Activity,[18],Non-Toxic
same,Ratio,[19],0.83
same,Activity,[20],62.4%
same,Activity,[21],Toxic
same,Activity,[22],Non-Toxic
same,Ratio,[23],0.85
same,Activity,[24],64.9%
same,Activity,[25],Non-Toxic
same,Activity,[26],Toxic
same,Activity,[27],5.67
same,Ratio,[28],0.92
same,Activity,[29],Non-Toxic
same,Activity,[30],9.3%
same,Activity,[31],48.5%
same,Activity,[32],6
same,Ratio,[33],0.85
same,Activity,[34],Non-Toxic
same,Ratio,[35],0.82
same,Activity,[36],Non-Toxic
same,Activity,[37],Non-Toxic
same,Activity,[38],Toxic
same,Activity,[39],Active
same,Activity,[40],Non-Toxic
